T/C data for 19 compounds are collected here from PubChem BioAssay AID330 (DTP/NCI, 2004).

SMILES strings stand for the structures. Values joined by “and” are separate entries in the source; they are usually repeats but may differ in a detail not shown here. Equal values may be shown once. Inconclusive results and toxic doses are left out.

The assay deals with P388 leukemia ip, CD2F1 mice, survival T/C. The assay is described as follows: NCI In Vivo Anticancer Drug Screen. Data for tumor model P388 Leukemia (intraperitoneal) in CD2F1 (CDF1) mice. To be noted: endpoint: median survival time, higher = longer survival. In a few lines: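 Mice carrying the transplanted tumor received test compound or vehicle. Survival was recorded in each group, and the value is the treated-group measurement divided by that of the vehicle-treated control group.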

The mark [1] stands for this setting: dose: 50.0 mg/kg/injection, schedule: Q01DX005 (ip), vehicle: saline.
The mark [2] stands for this setting: dose: 100.0 mg/kg/injection, schedule: Q01DX005 (ip), vehicle: saline.
[3] abbreviates: dose: 60.0 mg/kg/injection, schedule: Q01DX005 (ip), vehicle: saline with Tween-80.
The mark [4] stands for this setting: dose: 120.0 mg/kg/injection, schedule: Q01DX005 (ip), vehicle: saline with Tween-80.
Where [5] appears, read: dose: 240.0 mg/kg/injection, schedule: Q01DX005 (ip), vehicle: saline with Tween-80.
Where [6] appears, read: dose: 50.0 mg/kg/injection, schedule: Q01DX005 (ip), vehicle: Klucel (hydroxypropylcellulose) (HPC).
[7] abbreviates: dose: 100.0 mg/kg/injection, schedule: Q01DX005 (ip), vehicle: Klucel (hydroxypropylcellulose) (HPC).
Setting [8] is: dose: 200.0 mg/kg/injection, schedule: Q01DX005 (ip), vehicle: Klucel (hydroxypropylcellulose) (HPC).
[9] abbreviates: dose: 100.0 mg/kg/injection, schedule: Q04DX003 (ip), vehicle: saline with Tween-80.
The mark [10] stands for this setting: dose: 200.0 mg/kg/injection, schedule: Q04DX003 (ip), vehicle: saline with Tween-80.
Setting [11] is: dose: 400.0 mg/kg/injection, schedule: Q04DX003 (ip), vehicle: saline with Tween-80.

On to `Cn1cnc([N+](=O)[O-])c1Sc1ncnc2nc[nH]c12`, for which the T/C by setting is: (dose: 216.0 mg/kg/injection, schedule: Q01DX001 (ip), vehicle: saline with Tween-80) 106 % of control and 122 % of control; (dose: 360.0 mg/kg/injection, schedule: Q01DX001 (ip), vehicle: saline with Tween-80) 118 % of control; (dose: 600.0 mg/kg/injection, schedule: Q01DX001 (ip), vehicle: saline with Tween-80) 108 % of control and 79 % of control.
Consider `Nc1cc2ccccc2cc1NS(=O)(=O)N1CCCCC1`, for which the T/C was 94 % of control (dose: 50.0 mg/kg/injection, schedule: Q01DX009 (ip), vehicle: acetone); 101 % of control (dose: 100.0 mg/kg/injection, schedule: Q01DX009 (ip), vehicle: acetone); 98 % of control (dose: 200.0 mg/kg/injection, schedule: Q01DX009 (ip), vehicle: acetone).
For `O=CNC(Cc1ccccc1N(CCCl)CCCl)C(=O)O` (stereo unspecified), the T/C runs as follows: (dose: 5.0 mg/kg/injection, schedule: Q04DX003 (ip), vehicle: other) 198 % of control; (dose: 5.0 mg/kg/injection, schedule: Q04DX003 (ip), vehicle: water) 154 % of control; (dose: 10.0 mg/kg/injection, schedule: Q04DX003 (ip), vehicle: other) 261 % of control; (dose: 10.0 mg/kg/injection, schedule: Q04DX003 (ip), vehicle: water) 187 % of control; (dose: 20.0 mg/kg/injection, schedule: Q04DX003 (ip), vehicle: other) 293 % of control; (dose: 20.0 mg/kg/injection, schedule: Q04DX003 (ip), vehicle: water) 309 % of control. Further, the T/C (dose: 40.0 mg/kg/injection, schedule: Q04DX003 (ip), vehicle: water) is 113 % of control.
As to `CC(=O)OCC#CCN1CCCCCC1`, the T/C by setting is: under setting [1], 91 % of control; under setting [2], 92 % of control.
`Cc1ccc(-c2sc3ccccc3c(=O)c2CCl)cc1CO`: the T/C is 100 % of control under setting [3], 95 % of control under setting [4] and 90 % of control under setting [5].
As for `O=C1C(N=Nc2ccc(S(=O)(=O)Nc3ccccn3)cc2)C(=O)N(c2ccc(Cl)cc2)C(=S)N1c1ccc(Cl)cc1`, the T/C was 105 % of control under setting [1]; 114 % of control under setting [2]; 112 % of control (dose: 200.0 mg/kg/injection, schedule: Q01DX005 (ip), vehicle: saline).
Regarding `O=[N+]([O-])c1ccccc1N=Nc1c(O)sc2ccccc12`, the T/C under setting [6] was 98 % of control, the T/C under setting [7] is 96 % of control and the T/C under setting [8] is 91 % of control.
For the compound `O=C1/C(=C/N2CCN(c3ccccc3)CC2)Cc2c(F)cccc21`, the T/C is 100 % of control (dose: 100.0 mg/kg/injection, schedule: Q04DX003 (ip), vehicle: Klucel (hydroxypropylcellulose) (HPC)); 97 % of control (dose: 200.0 mg/kg/injection, schedule: Q04DX003 (ip), vehicle: Klucel (hydroxypropylcellulose) (HPC)); 100 % of control (dose: 400.0 mg/kg/injection, schedule: Q04DX003 (ip), vehicle: Klucel (hydroxypropylcellulose) (HPC)).
As to `CCOC(=O)C(Br)(C(=O)OCC)C(C)C`, the T/C is, setting by setting: (dose: 50.0 mg/kg/injection, schedule: Q01DX009 (ip), vehicle: saline) 111 % of control; (dose: 100.0 mg/kg/injection, schedule: Q01DX009 (ip), vehicle: saline) 109 % of control; (dose: 200.0 mg/kg/injection, schedule: Q01DX009 (ip), vehicle: saline) 120 % of control.
`COc1ccc(C2SCC(=O)N2c2nncs2)cc1F` (stereo unspecified): the T/C is 92 % of control (dose: 60.0 mg/kg/injection, schedule: Q01DX005 (ip), vehicle: Klucel (hydroxypropylcellulose) (HPC)); 96 % of control (dose: 120.0 mg/kg/injection, schedule: Q01DX005 (ip), vehicle: Klucel (hydroxypropylcellulose) (HPC)); 92 % of control (dose: 240.0 mg/kg/injection, schedule: Q01DX005 (ip), vehicle: Klucel (hydroxypropylcellulose) (HPC)).
Turning to `COc1ccc(C(Cc2ccccc2)C2(O)C(=O)NC(=O)NC2=O)cc1` (stereo unspecified), the T/C runs as follows: under setting [3], 103 % of control; under setting [4], 99 % of control; under setting [5], 98 % of control.
As for `Clc1ccc(CSc2ncnc3nc[nH]c23)cc1`, the T/C is, setting by setting: under setting [9], 109 % of control; under setting [10], 104 % of control; under setting [11], 109 % of control.
Take `CC(C)(C)c1cc(/C2=c3\cc/c([n-]3)=C(\c3cc(C(C)(C)C)c(O)c(C(C)(C)C)c3)c3ccc([n-]3)/C(c3cc(C(C)(C)C)c(O)c(C(C)(C)C)c3)=c3/cc/c([n-]3)=C(\c3cc(C(C)(C)C)c(O)c(C(C)(C)C)c3)c3ccc2[n-]3)cc(C(C)(C)C)c1O.[Zn]`: the T/C is 97 % of control (dose: 100.0 mg/kg/injection, schedule: Q04DX002 (ip), vehicle: saline with Tween-80); 88 % of control (dose: 200.0 mg/kg/injection, schedule: Q04DX002 (ip), vehicle: saline with Tween-80); 90 % of control (dose: 400.0 mg/kg/injection, schedule: Q04DX002 (ip), vehicle: saline with Tween-80).
On to `NC(=S)c1cccc(/C=N/Nc2ccccn2)c1`, for which the T/C is, setting by setting: (dose: 100.0 mg/kg/injection, schedule: Q01DX001 (ip), vehicle: saline) 96 % of control; (dose: 200.0 mg/kg/injection, schedule: Q01DX001 (ip), vehicle: saline) 94 % of control; (dose: 400.0 mg/kg/injection, schedule: Q01DX001 (ip), vehicle: saline) 96 % of control.
Consider `C[CH2][Ge]([Cl])([Cl])[CH2]C`, for which the T/C is, setting by setting: under setting [6], 91 % of control; under setting [7], 87 % of control.
For `CN(C)c1ccc(/C=C2\C=Cc3ccccc32)cc1`, the T/C is 109 % of control under setting [9], 90 % of control under setting [10] and 90 % of control under setting [11].
Regarding `Cc1ccc(-n2ncc3c(=O)n(-c4cccc(C)c4)c(=O)[nH]c32)cc1`, the T/C is 99 % of control (dose: 50.0 mg/kg/injection, schedule: Q01DX009 (ip), vehicle: Klucel (hydroxypropylcellulose) (HPC)); 97 % of control (dose: 100.0 mg/kg/injection, schedule: Q01DX009 (ip), vehicle: Klucel (hydroxypropylcellulose) (HPC)); 96 % of control (dose: 200.0 mg/kg/injection, schedule: Q01DX009 (ip), vehicle: Klucel (hydroxypropylcellulose) (HPC)).
On to `OC(c1ccccc1)C1CC=CCC1` (stereo unspecified), for which the T/C by setting is: (dose: 12.5 mg/kg/injection, schedule: Q04DX003 (ip), vehicle: saline) 97 % of control; (dose: 25.0 mg/kg/injection, schedule: Q04DX003 (ip), vehicle: saline with Tween-80) 101 % of control and 98 % of control; (dose: 25.0 mg/kg/injection, schedule: Q04DX003 (ip), vehicle: saline) 105 % of control; (dose: 50.0 mg/kg/injection, schedule: Q04DX003 (ip), vehicle: saline with Tween-80) 111 % of control and 96 % of control; (dose: 50.0 mg/kg/injection, schedule: Q04DX003 (ip), vehicle: saline) 109 % of control; under setting [9], 99 % of control. Besides, the T/C (dose: 100.0 mg/kg/injection, schedule: Q04DX003 (ip), vehicle: saline) is 103 % of control and the T/C under setting [10] is 99 % of control.
Regarding `CC1=C(N2CCOCC2)C(N2CCOCC2)=C(C)C(=O)C1=O`, the T/C (dose: 12.5 mg/kg/injection, schedule: Q01DX005 (ip), vehicle: Klucel (hydroxypropylcellulose) (HPC)) was 108 % of control; the T/C (dose: 25.0 mg/kg/injection, schedule: Q01DX005 (ip), vehicle: Klucel (hydroxypropylcellulose) (HPC)) is 101 % of control; the T/C under setting [6] is 108 % of control; the T/C under setting [7] is 97 % of control; the T/C under setting [8] was 96 % of control.
